{"source": "patent US20240218399A1", "about": "“LIPID COMPOUNDS AND LIPID NANOPARTICLE COMPOSITIONS” (SUZHOU ABOGEN BIOSCIENCES CO., LTD., priority 2021, published 2024)", "key": {"[1]": {"tested_on": "female ICR mice", "assay": "In vivo hEPO mRNA expression, serum hEPO after tail vein injection", "details": "0.5 mg/kg tail vein; for hEPO protein expression level in mice among formulations of Table 6.7: FIG. 7, sphingomyelin of different tail length; for in vivo mRNA expression of sphingomyelin-containing LNP compared to corresponding DSPC control formulation: FIG. 9", "method": "Lipid nanoparticles encapsulating human erythropoietin (hEPO) mRNA were prepared as described above, and systemically administered to 6-8 week old female ICR mice (Xipuer-Bikai, Shanghai) at 0.5 mg/kg dose by tail vein injection. Mice were euthanized by CO2 overdoses at 6 hours post administration, and blood samples were taken for hEPO measurement. Particularly, serum were separated from total blood by centrifugation at 5000 g for 10 minutes at 4° C., snap-frozen and stored at −80° C. for analysis. The serum hEPO level was measured using an ELSA assay carried out using a commercial kit (DEP00, R&D systems) according to manufacturer's instructions. The hEPO expression levels (μg/ml) measured from the tested group are plotted in FIG. 4, showing the mean value and standard deviation (SD) of at least five repeated experiments (test animals) for each group.\n(§1) Each LNP formulation was systemically administered to 6-8 week old female ICR mice (Xipuer-Bikai, Shanghai) at 0.5 mg/kg dose by tail vein injection, and blood samples were taken for hEPO measurement as described herein. The hEPO expression levels (μg/ml) measured from the tested group are plotted in FIG. 6, showing the mean value and standard deviation (SD) of at least five repeated experiments (test animals) for each group.\nas §1, with “7,” for “6,”\nas §1, with “9,” for “6,”, “group. As shown, for each of the tested cationic lipids, the average in vivo expression level of mRNA was higher for the sphingomyelin containing composition as compared to the corresponding control formulation containing an equivalent amount of DSPC instead of sphingomyelin.” for “group.”"}, "[2]": {"tested_on": "Hela cells", "assay": "In vitro GFP mRNA expression from LNP formulations", "assay_type": "cell-based", "details": "for in vitro GFP expression of LNP formulated using sphingomyelin with this cationic lipid: FIG. 3C", "method": "(§2) Lipid nanoparticles encapsulating green fluorescent protein (GFP) mRNA were prepared as described above. Hela cell line was seeded in a 96-well plate. LNP formulation was mixed with 10 μg/mL ApoE at 1:1 (v/v) ratio, then added to the cells at 200 ng/well or 400 ng/well concentrations, and incubated for 36 to 48 hours. GFP intensity was measured with […] following manufacturer's instructions, and fluorescence intensity (relative light units; RLU) of different groups were plotted in FIG. 3A to 3C, showing the mean value and standard deviation (SD) of at least five repeated experiments for each group.\nas §2, with “Hela” for “Lipid nanoparticles encapsulating green fluorescent protein (GFP) mRNA were prepared as described above. Hela”, “ratio at 37° C. for 15 min,” for “ratio,”, “at” for “at 200 ng/well or”, “8,” for “3A to 3C,”, “three” for “five”"}}}
{"smiles": "CCCCCCCCCCCCC/C=C/[C@@H](O)[C@H](COP(=O)([O-])OCC[N+](C)(C)C)NC(=O)CCCCCCCCCCCCCCC", "note": "[SM-03, 16:0(d18:1/16:0)]", "values": [{"measurement": "hEPO protein expression level in mice among formulations of Table 6.7", "setting": "[1]", "result": "highest protein expression level"}]}
{"smiles": "CCCCCCCCCCCCC/C=C/[C@@H](O)[C@H](COP(=O)([O-])OCC[N+](C)(C)C)NC(=O)CCCCCCCCCCCCC", "note": "[SM-02, 14:0(d18:1/14:0)]", "values": [{"measurement": "hEPO protein expression level in mice among formulations of Table 6.7", "setting": "[1]", "result": "highest protein expression level"}]}
{"smiles": "CCCCCCCCC(CCCCCC)COC(=O)CCCCCN(CCCCCC(=O)OCC(CCCCCC)CCCCCCCC)CCN(CCO)C1CCC1", "note": "(stereo not drawn) [Formulation C1]", "values": [{"measurement": "in vitro GFP expression of LNP formulated using sphingomyelin with this cationic lipid", "setting": "[2]", "result": "enhanced in vitro GFP expression"}, {"measurement": "in vivo mRNA expression of sphingomyelin-containing LNP compared to corresponding DSPC control formulation", "setting": "[1]", "result": "significantly higher"}]}
{"smiles": "CCCCC/C=C\\C/C=C\\CCCCCCCC(=O)OCCCCCCN(CCO)CCCCC(COC(=O)CCCCCCC)COC(=O)CCCCCCC", "note": "[Formulation C16]", "values": [{"measurement": "in vivo mRNA expression of sphingomyelin-containing LNP compared to corresponding DSPC control formulation", "setting": "[1]", "result": "significantly higher"}]}
{"smiles": "CCCCCCCCC(CCCCCCCC)CNC(=O)CCCCCN(CCO)CCN(CCCCCC(=O)OCC(CCCCCCCC)CCCCCCCC)C1CCC1", "note": "[Formulation C3]", "values": [{"measurement": "in vitro mRNA expression of sphingomyelin-containing LNP compared to corresponding DSPC control formulation", "setting": "[2]; GFP mRNA, 400 ng/well, FIG. 8", "result": "significantly higher"}]}
{"smiles": "CCCCCCCCCOC(=O)CCCCCCCN(CCO)CCCCCCCC(=O)OC(CCCCCCCC)CCCCCCCC", "note": "[Lipid 5, reference compound]", "values": [{"measurement": "in vitro GFP expression of LNP formulated using sphingomyelin with this cationic lipid", "setting": "[2]", "result": "enhanced in vitro GFP expression"}]}
{"smiles": "CCCCCCCCC(CCCCCC)C(=O)OCCCCCCN(CCCCO)CCCCCCOC(=O)C(CCCCCC)CCCCCCCC", "note": "(stereo not drawn) [ALC-0315, reference compound]", "values": [{"measurement": "in vivo mRNA expression of sphingomyelin-containing LNP compared to corresponding DSPC control formulation", "setting": "[1]", "result": "significantly higher"}]}
{"smiles": "CCCCCCCC(=O)OCC(CCCCN(CCCCCO)CCCCC(COC(=O)CCCCCCC)COC(=O)CCCCCCC)COC(=O)CCCCCCC", "note": "[Formulation C14]", "values": [{"measurement": "in vivo mRNA expression of sphingomyelin-containing LNP compared to corresponding DSPC control formulation", "setting": "[1]", "result": "significantly higher"}]}
